Test system: 282377-053-R-J1-PDC complex spheroids, viability
Test: Anticancer human tumor 282377-053-R-J1-PDC patient-derived colon adenocarcinoma cell line growth inhibition [GQUAD]
Conditions: for IC50: curve of first compound; for viability, T/C: stronger effect = lower value; active = viability on the fitted dose curve at most 10% of control; inactive = the rest
Excerpt: DNA G-quadruplex Stabilizer Agents in Combinations in Complex Spheroids
A high-throughput screen of multi-cell type tumor spheroids was designed to identify active combinations of DNA G-quadruplex stabilizer agents and targeted small molecules. Complex spheroids include a stromal component modeled by human endothelial cells (HUVEC) and fibroblasts modeled by human mesenchymal stem cells (MSCs). The concentration ranges selected for each drug and investigational agent were based upon clinically achievable concentrations if the clinical Cmax of the agent was known.
Compounds. The drugs and investigational agents: pidnarulex (CX-5461; NSC782164), APTO-253 (NSC789042), BRACO-19 (NSC847499), peposertib (NSC802822), ceralasertib (NSC780249), elimusertib (NSC800525), camonsertib (NSC841442), AZD-1390 (NSC803789), olaparib (NSC753686), talazoparib (NSC767125), ART-558 (NSC835418), sotorasib (NSC818433), MRTX-1133 (NSC836407), SN-38 (NSC673596), topotecan (NSC609699), etoposide (NSC141540), doxorubicin (NSC123127), gemcitabine (NSC613327), 5-fluorouracil (NSC19893), paclitaxel (NSC125973), vemurafenib (NSC761431), panobinostat (NSC761190), R-306465 (JNJ-16241199; NSC773264), adavosertib (NSC754352), TP-3654 (NSC805149), carboplatin (NSC241240), KSQ-4279 (NSC840948), and staurosporine (NSC755774) were obtained from the National Cancer Institute (NCI) Developmental Therapeutics Program Chemical Repository (34). The FDA-approved anticancer drug set is available from the NCI Developmental Therapeutics Program. […] The stock solutions were prepared in dimethyl sulfoxide (DMSO, Sigma-Aldrich, St. Louis, MO, cat. D2650) at 800-fold the tested concentration and stored at -70 degrees C prior to their use. All drugs and investigational agents were tested over a range starting from a high concentration at or near the clinical Cmax and decreasing in half-log increments. If the clinical Cmax for an agent had not been determined, the highest concentration tested was 10 microM.
2.3 Cell Culture. All cells were maintained in an incubator at 37 degrees C and 5% CO2 with 95% humidity. The PDC lines were cultured according to standard operating procedures established by the NCI PDMR. All PDCs were thawed and cultured in Matrigel-coated flasks prepared with a working solution of 1X Ham's F-12 nutrient mix, without supplementation (Invitrogen, cat. 11765054), 100 U/mL penicillin-streptomycin (Invitrogen, cat. 15140122), and 2.5% Matrigel (Corning Inc., cat. 354248) for the first three passages. The 857933-349-R-J2-PDC line was cultured in 6C/Colon 1B media, which includes advanced DMEM/F-12 (Thermo Fisher Scientific, cat. 12634028), 10 mM HEPES (Thermo Fisher Scientific, cat. 15630080), 1X GlutaMAX supplement (Thermo Fisher Scientific, cat. 35050061), 0.1 mg/mL primocin (InvivoGen, cat. ant-pm-2), 10% defined fetal bovine serum, heat inactivated (HyClone Laboratories Inc., cat. SH30070.03HI), 50% L-WRN conditioned media (ATCC, cat. CRL-3276), 1.25 mM N-Acetyl-L-cysteine (Sigma-Aldrich, cat. A9165), 10 mM nicotinamide (Sigma-Aldrich, cat. N0636), 1X B-27 supplement (Thermo Fisher Scientific, cat. 17504044), 1X N-2 supplement (Thermo Fisher Scientific, cat. 17502048), 10 microM Y-27632 dihydrochloride (Tocris Bioscience, cat. 1254), and 50 ng/mL human EGF recombinant protein (Thermo Fisher Scientific, cat. PHG0311). The 485176-168-R4-J1-PDC line was cultured in Panc media, which includes all 6C/Colon 1B media components plus 100 ng/mL human FGF-10 (Thermo Fisher Scientific, cat. 100-26), 500 nM SB-431542 (Selleckchem, cat. S1067), and gastrin (Tocris, cat. 3006).
[…]

[1] = second compound 0.0316 µM, first compound 0.0316 µM
[2] = second compound 0.0316 µM, first compound 0.1 µM
[3] = second compound 0.0316 µM, first compound 0.316 µM
[4] = second compound 0.0316 µM, first compound 1 µM
[5] = second compound 0.0316 µM, first compound 3.16 µM
[6] = second compound 0.0316 µM, first compound 10 µM
[7] = second compound 0.1 µM, first compound 0.0316 µM
[8] = second compound 0.1 µM, first compound 0.1 µM
[9] = second compound 0.1 µM, first compound 0.316 µM
[10] = second compound 0.1 µM, first compound 1 µM
[11] = second compound 0.1 µM, first compound 3.16 µM
[12] = second compound 0.1 µM, first compound 10 µM
[13] = second compound 0.316 µM, first compound 0.0316 µM
[14] = second compound 0.316 µM, first compound 0.1 µM
[15] = second compound 0.316 µM, first compound 0.316 µM
[16] = second compound 0.316 µM, first compound 1 µM
[17] = second compound 0.316 µM, first compound 3.16 µM
[18] = second compound 0.316 µM, first compound 10 µM
[19] = second compound 1 µM, first compound 0.0316 µM
[20] = second compound 1 µM, first compound 0.1 µM
[21] = second compound 1 µM, first compound 0.316 µM
[22] = second compound 1 µM, first compound 1 µM
[23] = second compound 1 µM, first compound 3.16 µM
[24] = second compound 1 µM, first compound 10 µM
[25] = second compound 3.16 µM, first compound 0.0316 µM
[26] = second compound 3.16 µM, first compound 0.1 µM
[27] = second compound 3.16 µM, first compound 0.316 µM
[28] = second compound 3.16 µM, first compound 1 µM
[29] = second compound 3.16 µM, first compound 3.16 µM
[30] = second compound 3.16 µM, first compound 10 µM
[31] = second compound 10 µM, first compound 0.0316 µM
[32] = second compound 10 µM, first compound 0.1 µM
[33] = second compound 10 µM, first compound 0.316 µM
[34] = second compound 10 µM, first compound 1 µM
[35] = second compound 10 µM, first compound 3.16 µM
[36] = second compound 10 µM, first compound 10 µM
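Also: spheroids exposed to compounds for 7 days before readout.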
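For viability, T/C in this document: percent of vehicle DMSO control viability with 100% = untreated-like growth.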

CC(C)n1c(=O)n(C)c2cnc3cc(F)c(-c4ccc(OCCCN5CCCCC5)nc4)cc3c21 + CN(C)c1ccc(Nc2c3ccc(NC(=O)CCN4CCCC4)cc3nc3cc(NC(=O)CCN4CCCC4)ccc23)cc1
inactive: viability, T/C [1] 97.9% | viability, T/C [2] 108% | viability, T/C [3] 102% | viability, T/C [4] 106% | viability, T/C [5] 104% | viability, T/C [6] 101% | viability, T/C [7] 92.5% | viability, T/C [8] 101% | viability, T/C [9] 89.5% | viability, T/C [10] 108% | viability, T/C [11] 89.4% | viability, T/C [12] 90.9% | viability, T/C [13] 100% | viability, T/C [14] 107% | viability, T/C [15] 108% | viability, T/C [16] 103% | viability, T/C [17] 88.3% | viability, T/C [18] 101% | viability, T/C [19] 106% | viability, T/C [20] 96.8% | viability, T/C [21] 99.7% | viability, T/C [22] 94.4% | viability, T/C [23] 105% | viability, T/C [24] 91% | viability, T/C [25] 113% | viability, T/C [26] 108% | viability, T/C [27] 102% | viability, T/C [28] 114% | viability, T/C [29] 110% | viability, T/C [30] 108% | viability, T/C [31] 106% | viability, T/C [32] 102% | viability, T/C [33] 110% | viability, T/C [34] 99.7% | viability, T/C [35] 97.7% | viability, T/C [36] 57.7%
> 10000 nM: IC50 (second compound 0.0316 µM) | IC50 (second compound 0.1 µM) | IC50 (second compound 0.316 µM) | IC50 (second compound 1 µM) | IC50 (second compound 3.16 µM) | IC50 (second compound 10 µM)

CC1COCCN1c1cc(-c2ccnn2C)c2ccnc(-c3ccn[nH]3)c2n1 (centres undefined) + CN(C)c1ccc(Nc2c3ccc(NC(=O)CCN4CCCC4)cc3nc3cc(NC(=O)CCN4CCCC4)ccc23)cc1
612 nM: IC50 (second compound 0.0316 µM)
inactive: viability, T/C [1] 86.5% | viability, T/C [2] 88% | viability, T/C [3] 61.9% | viability, T/C [4] 40.6% | viability, T/C [5] 34.6% | viability, T/C [6] 26.5% | viability, T/C [7] 91% | viability, T/C [8] 75.7% | viability, T/C [9] 67.1% | viability, T/C [10] 41.7% | viability, T/C [11] 32.8% | viability, T/C [12] 24.8% | viability, T/C [13] 82% | viability, T/C [14] 65.4% | viability, T/C [15] 56.8% | viability, T/C [16] 38.3% | viability, T/C [17] 38.5% | viability, T/C [18] 26.4% | viability, T/C [19] 79.1% | viability, T/C [20] 101% | viability, T/C [21] 67.3% | viability, T/C [22] 36.7% | viability, T/C [23] 32.6% | viability, T/C [24] 27.8% | viability, T/C [25] 84.5% | viability, T/C [26] 74% | viability, T/C [27] 67.4% | viability, T/C [28] 48.6% | viability, T/C [29] 38.6% | viability, T/C [30] 26.7% | viability, T/C [31] 85.1% | viability, T/C [32] 75.4% | viability, T/C [33] 64.1% | viability, T/C [34] 42.7% | viability, T/C [35] 38.6% | viability, T/C [36] 29%
717 nM: IC50 (second compound 0.1 µM)
480 nM: IC50 (second compound 0.316 µM)
1080 nM: IC50 (second compound 3.16 µM)
559 nM: IC50 (second compound 1 µM)
745 nM: IC50 (second compound 10 µM)

— PubChem BioAssay AID2060501 (Molecular Pharmacology Branch, DTP, NCI, 2025)
